Data published in patent publication US5840728A, “Conformationally locked nucleoside analogs as antiherpetic agents” (priority 1997, dated 1998).
Converted amounts (≈) assume the structure as drawn. Where two headings read alike, the source gives them in different places.

Legend:
EBV (Epstein-Barr virus) = assay: microbe, parasite or virus in culture; format: cell-based; conditions: for EC50: human gammaherpesvirus 4, read-out: EC50; for anti-EBV activity relative to acyclovir / EC50: EBV; for activity against EBV: in words
Text: (§1) Compounds 25 and 26 are (S)-methanocarba-T and (±)-(carba-T), respectively. (±)-carba-T was kindly provided by Dr. Y. Fulmer Shealy, Southern Research Institute, Birmingham, Ala. [drawing 5]

[1] = Cytotoxicity in growing (rapidly dividing) HFF; format: cell-based, human; conditions: human, growing hff cells, read-out: CC50
Growing HFF = assay: Cytotoxicity in growing (rapidly dividing) HFF; format: cell-based, human; conditions: in words; rapidly proliferating vs stationary cells
[2] = system: S-adenosylhomocysteine hydrolase (AdoHcy-ase); assay: Inhibition of S-adenosylhomocysteine hydrolase; format: biochemical
[3] = system: HCMV (human cytomegalovirus); assay: microbe, parasite or virus in culture; format: cell-based; conditions: for EC50: Human betaherpesvirus 5, Table 5, HCMV, plaque reduction assay
Text: | ^f plaque reduction assay.

[4] = Cytotoxicity in host cells / stationary cells (HFF); format: cell-based, human; conditions: human, hff cells
Text: (§2) ^d CC50 = cytotoxic concentration in μg/mL that produces 50%

[5] = system: HSV-2 (herpes simplex type 2); assay: microbe, parasite or virus in culture; conditions: for EC50: HSV-2; for activity against HSV-2: in words
Text: as §1

[6] = system: HSV-1 (herpes simplex type 1); assay: microbe, parasite or virus in culture; conditions: for EC50: HSV-1; for activity against HSV-1: in words
Text: as §1

[7] = system: HCMV (human cytomegalovirus); assay: microbe, parasite or virus in culture; format: cell-based
[8] = system: adenosine deaminase (ADA); assay: Adenosine deaminase studies (deamination by ADA); format: biochemical
Method: (§3) At timed intervals, 50 µl aliquots were quenched with 450 μl water containing the ADA inhibitor deoxycoformycin (4 μM). Hydrolysis kinetics of 4 were followed by high performance liquid chromatography (HPLC) with on-the-fly UV spectral characterization of all chromatographic components. […] The hydrolysis rate constant (k/ADA) and t^1/2 of decay or formation were obtained using GraphPAD Inpiot curve fitting program.

[9] = Adenosine deaminase studies (deamination by ADA); format: biochemical; conditions: adenosine deaminase; 50 μM compound; 1.0 unit ADA; 37° C., pH 7.1; read-out: t1/2 of deamination
Method: as §3

[10] = Cytotoxicity in EBV host cells (Daudi); format: cell-based; conditions: human
herpes viruses = assay: Antiherpetic activity, overall; format: cell-based; conditions: in words
[11] = system: HFF (human foreskin fibroblasts); assay: Cytotoxicity in host cells / stationary cells (HFF); format: cell-based; conditions: Table 5; host cell not given; listed as (N)-DMC-G
Text: as §2

[12] = Human alphaherpesvirus 2, Table 5
[13] = Human alphaherpesvirus 1, Table 5
[14] = Human betaherpesvirus 5, Table 5, HCMV, read-out: EC50

Nc1ncnc2c1ncn2[C@H]1C[C@H](O)[C@]2(CO)C[C@H]12 [Compound 4, (1 R,2S,4S,5S)-1-Hydroxymethyl-2-hydroxM-4-(6-amino-9-purinyl)bicyclo[3.1.0]hexane]
SI (CC50/EC50) (EBV (Epstein-Barr virus)): > 66.7 | anti-EBV activity relative to acyclovir (EBV (Epstein-Barr virus)): only fifteen fold weaker than acyclovir | EC50 (EBV (Epstein-Barr virus)): 1.5 µg/mL (≈ 5.74 µM) | EC50 (EBV (Epstein-Barr virus); Table 3, Daudi, viral capsid antigen): 1.5 µg/mL (≈ 5.74 µM) | activity against EBV (EBV (Epstein-Barr virus); listed as (N)-methanocarba-A): exhibited antiviral effects against Human CMV, EBV and HSV-2 | CC50 ([1]; Table 3, Growing HFF): > 100 µg/mL | cytotoxicity to rapidly dividing cells (Growing HFF): equally non-toxic to rapidly proliferating cells and stationary cells | inhibition ([2]; at 100 μM): 20% | inhibition ([2]; at 100 FM concentration (so in the source)): 20% | activity against AdoHcy-ase ([2]; in words): very low | EC50 ([3]; read-out: EC50): 5.6 µg/mL (≈ 21.4 µM) | SI (CC50/EC50) ([3]; human foreskin fibroblasts): > 17.9 | CC50 ([4]; Table 3, HFF): > 100 µg/mL | CC50 ([4]; Table 5, host cell not given): > 100 µg/mL | SI (CC50/EC50) [5]: > 7.2 | EC50 ([5]; Human alphaherpesvirus 2, Table 3, HFF): 13.9 µg/mL (≈ 53.2 µM) | EC50 [5, 12]: 13.9 µg/mL (≈ 53.2 µM) | activity against HSV-2 ([5]; listed as (N)-methanocarba-A): exhibited antiviral effects against Human CMV, EBV and HSV-2 | SI (CC50/EC50) [6]: > 1.4 | EC50 ([6]; Human alphaherpesvirus 1, Table 3, HFF): 72 µg/mL (≈ 276 µM) | EC50 [6, 13]: 72 µg/mL (≈ 276 µM) | activity against HSV-1 [6]: weak level of activity | SI (CC50/EC50) [7]: > 32.2 | potency against HCMV relative to gancyclovir ([7]; HCMV): only ten fold less potent than gancyclovir | antiviral selectivity ([7]; HCMV, compared with gancyclovir, in words): superibor to that of gancyclovir | EC50 ([7]; Human betaherpesvirus 5, Table 3, HCMV, HFF, read-out: EC50): 3.1 µg/mL (≈ 11.9 µM) | EC50 [7, 14]: 3.1 µg/mL (≈ 11.9 µM) | EC50 ([7]; Human betaherpesvirus 5, text, HCMV, read-out: EC50): 3.1 µg/mL (≈ 11.9 µM) | activity against HCMV ([7]; in words, listed as (N)-methanocarba-A): exhibited antiviral effects against Human CMV, EBV and HSV-2 | time to complete deamination ([8]; 50 μM compound, 1.0 unit ADA, 37° C., pH 7.1): 30 min | deamination by ADA ([8]; in words): complete deamination | half-life at 50 µM [9]: 3.2 min | CC50 ([10]; Table 3, Daudi): > 100 µg/mL

Cc1cn([C@H]2C[C@H](O)[C@]3(CO)C[C@H]23)c(=O)[nH]c1=O [Compound 20]
SI (CC50/EC50) (EBV (Epstein-Barr virus)): > 222 | anti-EBV activity relative to acyclovir (EBV (Epstein-Barr virus)): not as strong as ACV | EC50 (EBV (Epstein-Barr virus); Table 4): 0.45 µg/mL (≈ 1.78 µM) | activity against EBV (EBV (Epstein-Barr virus)): significant anti-EBV activity | activity against EBV (EBV (Epstein-Barr virus); listed as N-methanocarba-T): effective against HSV-1, HSV-2 and EBV | CC50 ([1]; rapidly dividing cells): 32.9 µg/mL (≈ 130 µM) | CC50 ([4]; Table 4, HSV-1 and HSV-2 lines, host cell not given): > 20 µg/mL | CC50 ([4]; stationary cells): > 100 µg/mL | activity relative to acyclovir (herpes viruses; HSV-1 and HSV-2): stronger than observed with acyclovir | SI (CC50/EC50) [5]: > 167 | EC50 ([5]; Human alphaherpesvirus 2, Table 4, plaques reduced by 50%): 0.12 µg/mL (≈ 0.476 µM) | activity against HSV-2 [5]: strong activity | activity against HSV-2 ([5]; listed as N-methanocarba-T): effective against HSV-1, HSV-2 and EBV | SI (CC50/EC50) [6]: > 2000 | EC50 ([6]; Human alphaherpesvirus 1, Table 4, plaques reduced by 50%): 0.01 µg/mL (≈ 0.0396 µM) | activity against HSV-1 [6]: strong activity | activity against HSV-1 ([6]; listed as N-methanocarba-T): effective against HSV-1, HSV-2 and EBV | CC50 ([10]; Table 4, EBV line, host cell not given): > 100 µg/mL

O=c1ccn([C@H]2C[C@H](O)[C@]3(CO)C[C@H]23)c(=O)[nH]1 [Compound 21, (1R,2S,4S,5S)-1-(Hydroxymethyl)-2-hydroxy-4-(2,4-(1H,3H)-dioxopvrimidin-1-yl)bicyclor3.1.Olhexane]
CC50 ([4]; Table 5, host cell not given): > 100 µg/mL | SI (CC50/EC50) [5]: 1 | EC50 [5, 12]: > 100 µg/mL | activity against HSV-2 [5]: inactive against all three viruses | SI (CC50/EC50) [6]: 1 | EC50 [6, 13]: > 100 µg/mL | activity against HSV-1 [6]: inactive against all three viruses | SI (CC50/EC50) [7]: 1 | EC50 [7, 14]: > 100 µg/mL | activity against HCMV ([7]; in words): inactive against all three viruses

Nc1ccn([C@H]2C[C@H](O)[C@]3(CO)C[C@H]23)c(=O)n1 [Compound 22]
SI (CC50/EC50) [5]: < 4.8 | EC50 [5, 12]: > 20 µg/mL | activity against HSV-2 [5]: Little activity | SI (CC50/EC50) [6]: 486 | EC50 [6, 13]: 0.14 µg/mL (≈ 0.59 µM) | activity against HSV-1 [6]: very active against HSV-1 | SI (CC50/EC50) [7]: < 2.2 | EC50 [7, 14]: > 4 µg/mL | activity against HCMV ([7]; in words): active against HCMV

Nc1nc2c(ncn2[C@H]2C[C@H](O)[C@]3(CO)C[C@H]23)c(=O)[nH]1 [Compound 24]
CC50 [11]: 64.3 µg/mL (≈ 232 µM) | CC50 ([4]; Table 5, host cell not given): > 100 µg/mL | SI (CC50/EC50) [5]: > 10.1 | EC50 [5, 12]: 9.9 µg/mL (≈ 35.7 µM) | activity against HSV-2 [5]: active against HSV-1 and HSV-2 | SI (CC50/EC50) [6]: > 25 | EC50 [6, 13]: 4 µg/mL (≈ 14.4 µM) | activity against HSV-1 [6]: active against HSV-1 and HSV-2 | SI (CC50/EC50) [7]: < 3.2 | EC50 [7, 14]: > 20 µg/mL | activity against HCMV ([7]; in words): little activity against HCMV

Cc1cn([C@@]23C[C@H](O)[C@@H](CO)[C@@H]2C3)c(=O)[nH]c1=O [Compound 25, (S)-methanocarba-T, reference compound]
CC50 ([1]; rapidly dividing cells): > 100 µg/mL | CC50 ([4]; stationary cells): > 100 µg/mL | antiherpetic activity (herpes viruses): did not exhibit antiherpetic activity | SI (CC50/EC50) [5]: 1 | SI (CC50/EC50) [6]: 1

Nc1nc(O)c2ncn(COC(CO)CO)c2n1 [GCV, gancyclovir]
CC50 ([1]; rapidly dividing cells): 40 µg/mL (≈ 157 µM) | cytotoxicity to rapidly dividing cells (Growing HFF): increased cytotoxicity towards rapidly dividing cells | EC50 ([3]; control, read-out: Control EC50): 0.2 µg/mL (≈ 0.784 µM) | EC50 ([7]; Human betaherpesvirus 5, Table 3, HCMV, HFF, positive control, read-out: Positive Control EC50): 0.3 µg/mL (≈ 1.18 µM)
